Measurements reported in paper PMC4898059 (ACS infectious diseases, 2016).
Converted amounts (≈) assume the structure as drawn. Read-outs that look alike come from different tables or passages of the source.

Tests used:
[1] = tested on: Enterococcus faecium (ATCC 19434); experiment: MIC, E. faecium
MRSA [2] = experiment: Agar MIC and colony morphology on tryptic soy agar; assay type: cell-based, Staphylococcus aureus
[3] = tested on: Haemophilus influenzae (ATCC 49427); experiment: MIC, H. influenzae; settings: for MIC: Haemophilus influenzae
MRSA cells [4] = experiment: DHNA level in treated MRSA cells by LC/UV/MS; settings: MRSA cells treated with 8 µg/mL for 18 hr
M. tuberculosis = settings: ref Li, X., et al. ACS Med Chem Lett, 2011; cited from earlier work
E. coli (ATCC 25922) = experiment: MIC, E. coli; settings: for MIC: Escherichia coli
MRSA (BAA 1762) = experiment: MIC, broth, methicillin-resistant S. aureus; settings: for MIC: Staphylococcus aureus, BAA1762|MRSA; for MIC MRSA: modal value of experimental triplicates
[5] = tested on: Pseudomonas aeruginosa (ATCC 27853); experiment: MIC, P. aeruginosa; settings: for MIC: Pseudomonas aeruginosa
MRSA [6] = experiment: Systemic MRSA infection mouse model; assay type: in vivo, Swiss Webster mice; settings: mice, IP infection, 100 mg/kg SC at 1, 12 and 24 hr post infection
MSSA (ATCC 25923) = experiment: MIC, broth, methicillin-sensitive S. aureus; settings: for MIC: Staphylococcus aureus, ATCC25923|MSSA, read-out: MIC MSSA; for MIC MSSA: modal value of experimental triplicates
MRSA cells [7] = experiment: Menaquinone-8; assay type: cell-based, Staphylococcus aureus; settings: 1/10, 1/5, 1/3 and ½ MIC
MRSA [8] = experiment: Neutropenic thigh MRSA infection mouse model; assay type: in vivo, Swiss Webster mice; settings: for Reduction of bacterial load in thigh: neutropenic mice, 100 mg/kg SC at 1 and 12 hr post infection
[9] = tested on: Klebsiella pneumoniae (ATCC 13883); experiment: MIC, K. pneumoniae; settings: for MIC: Klebsiella pneumoniae
[10] = tested on: Bacillus subtilis (ATCC 6051); experiment: MIC, B. subtilis
[11] = tested on: Proteus mirabilis (ATCC 35659); experiment: MIC, P. mirabilis; settings: for MIC: Proteus mirabilis
saMenB = saMenB (Staphylococcus aureus, UniProt Q5HH38); experiment: Isothermal titration calorimetry with saMenB; assay type: binding, S. aureus
saMenB, sequence (Q5HH38 whole entry): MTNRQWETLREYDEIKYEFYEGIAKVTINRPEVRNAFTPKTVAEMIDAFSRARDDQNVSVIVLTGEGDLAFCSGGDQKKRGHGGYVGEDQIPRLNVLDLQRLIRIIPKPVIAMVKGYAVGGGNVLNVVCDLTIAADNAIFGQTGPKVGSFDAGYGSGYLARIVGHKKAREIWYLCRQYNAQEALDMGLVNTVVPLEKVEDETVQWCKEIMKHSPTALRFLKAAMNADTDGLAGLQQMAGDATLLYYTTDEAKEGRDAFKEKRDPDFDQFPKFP

Q: What does the source list for `COC(=O)C=CC(=O)c1ccc(Cl)cc1` [Compound 1, methyl 4-(4-chlorophenyl)-4-oxobut-2-enoate]?
A: MIC ([1]; ATCC19434, read-out: MIC + MK-4): 31.5 µg/mL; MIC ([1]; ATCC19434, read-out: MIC aerobic): 4 µg/mL (≈ 17.8 µM); MIC ([1]; ATCC19434, read-out: MIC anaerobic): 1.25 µg/mL (≈ 5.56 µM); MIC ([1]; ATCC19434, read-out: MIC capnophilic): 2.5 µg/mL (≈ 11.1 µM); Colony morphology (MRSA [2]; MRSA on TSA with 4 µg/mL (½ agar MIC), 48 hr): SCV phenotype; Growth with MK-4 complementation (MRSA [2]; MRSA on TSA with 16 µg/mL (2x agar-MIC) and 10 µM MK-4): wild-type growth; Agar MIC (MRSA [2]; MRSA on tryptic soy agar, no growth after 72 hr): 8 µg/mL; MIC capnophilic ([3]; H. influenzae, capnophilic (candle jar)): 0.25 µg/mL (≈ 1.11 µM); MIC ([3]; ATCC49427, read-out: MIC + MK-4): > 60 µg/mL; MIC ([3]; ATCC49427, read-out: MIC capnophilic): 0.25 µg/mL (≈ 1.11 µM); DHNA in treated cells (MRSA cells [4]): could not be detected; MIC aerobic (M. tuberculosis): 0.64 µg/mL (≈ 2.85 µM); MIC aerobic (E. coli (ATCC 25922); E. coli, aerobic): no activity; MIC (E. coli (ATCC 25922); ATCC25922, read-out: MIC + MK-4): > 60 µg/mL; MIC (E. coli (ATCC 25922); ATCC25922, read-out: MIC aerobic): > 60 µg/mL; MIC (E. coli (ATCC 25922); ATCC25922, read-out: MIC anaerobic): 15.5 µg/mL (≈ 69 µM); MIC (E. coli (ATCC 25922); ATCC25922, read-out: MIC capnophilic): 15.5 µg/mL (≈ 69 µM); MIC (MRSA (BAA 1762); read-out: MIC + MK-4): > 60 µg/mL; MIC (MRSA (BAA 1762); read-out: MIC MRSA): 0.75 µg/mL (≈ 3.34 µM); MIC (MRSA (BAA 1762); read-out: MIC aerobic): 0.75 µg/mL (≈ 3.34 µM); MIC (MRSA (BAA 1762); read-out: MIC anaerobic): 0.37 µg/mL (≈ 1.65 µM); MIC (MRSA (BAA 1762); read-out: MIC capnophilic): 0.37 µg/mL (≈ 1.65 µM); MIC aerobic ([5]; P. aeruginosa, aerobic): no activity; MIC anaerobic ([5]; P. aeruginosa, anaerobic (GasPak)): no activity; MIC capnophilic ([5]; P. aeruginosa, capnophilic (candle jar)): no activity; MIC ([5]; ATCC27853, read-out: MIC aerobic): > 60 µg/mL; MIC ([5]; ATCC27853, read-out: MIC anaerobic): > 60 µg/mL; MIC ([5]; ATCC27853, read-out: MIC capnophilic): > 60 µg/mL; Survival rate (days post infection) (MRSA [6]): 4.6 days; MIC (MSSA (ATCC 25923)): 0.35 µg/mL (≈ 1.56 µM); Change in MK-8 with increasing concentration (MRSA cells [7]): dose dependent decrease; Reduction of bacterial load in thigh (MRSA [8]): 3.1 log CFU/gram tissue; Dose dependence of bacterial burden in thigh (MRSA [8]; neutropenic mice, 25, 50 and 100 mg/kg SC): dose dependent reduction; MIC aerobic ([9]; K. pneumoniae, aerobic): no activity; MIC anaerobic ([9]; K. pneumoniae, anaerobic (GasPak)): 62.5 µg/mL (≈ 278 µM); MIC ([9]; ATCC13883, read-out: MIC + MK-4): > 60 µg/mL; MIC ([9]; ATCC13883, read-out: MIC aerobic): > 60 µg/mL; MIC ([9]; ATCC13883, read-out: MIC anaerobic): 62.5 µg/mL (≈ 278 µM); MIC ([9]; ATCC13883, read-out: MIC capnophilic): > 60 µg/mL; MIC ([10]; ATCC6051, read-out: MIC + MK-4): > 60 µg/mL; MIC ([10]; ATCC6051, read-out: MIC aerobic): 8 µg/mL (≈ 35.6 µM); MIC ([10]; ATCC6051, read-out: MIC anaerobic): 2 µg/mL (≈ 8.9 µM); MIC ([10]; ATCC6051, read-out: MIC capnophilic): 4 µg/mL (≈ 17.8 µM); MIC aerobic ([11]; P. mirabilis, aerobic): no activity; MIC ([11]; ATCC35659, read-out: MIC + MK-4): 31.5 µg/mL; MIC ([11]; ATCC35659, read-out: MIC aerobic): > 60 µg/mL; MIC ([11]; ATCC35659, read-out: MIC anaerobic): 12.5 µg/mL (≈ 55.6 µM); MIC ([11]; ATCC35659, read-out: MIC capnophilic): 12.5 µg/mL (≈ 55.6 µM)

Q: What does the source list for `COC(=O)C=CC(=O)c1ccc(Cl)cc1Cl` [Compound 5]?
A: MIC MRSA (MRSA (BAA 1762)): 2 µg/mL (≈ 7.72 µM); MIC MSSA (MSSA (ATCC 25923)): 1 µg/mL (≈ 3.86 µM)

Q: Which “MIC MRSA” value (MRSA (BAA 1762)) does the source give for `COC(=O)C=CC(=O)c1ccc(F)cc1` [Compound 2] here?
A: 12 µg/mL (≈ 57.6 µM)

Q: And the “MIC MSSA” value (MSSA (ATCC 25923))?
A: 8 µg/mL (≈ 38.4 µM)

Q: For `CC(C)(COP(=O)(O)OP(=O)(O)OC[C@H]1O[C@@H](n2cnc3c(N)ncnc32)[C@H](O)[C@@H]1OP(=O)(O)O)[C@@H](O)C(=O)NCCC(=O)NCCS` [CoA, coenzyme A], which Kd (saMenB) is on record?
A: 25 ± 4 µM

Q: Which MIC (MRSA (BAA 1762); read-out: MIC MRSA) does the source give for `Cc1onc(-c2ccccc2)c1C(=O)N[C@@H]1C(=O)N2[C@@H]1SC(C)(C)[C@@H]2C(=O)O` [Oxacillin, reference compound] here?
A: > 128 µg/mL

Q: What about the “Survival rate (days post infection)” value (MRSA [6]) of the same molecule?
A: 1.5 to 1.6 days

Q: And the MIC (MSSA (ATCC 25923))?
A: 0.1 µg/mL (≈ 0.249 µM)

Q: What about the “Reduction of bacterial load in thigh” value (MRSA [8]) of the same molecule?
A: minimal effect

Q: For `CN[C@H](CC(C)C)C(=O)N[C@H]1C(=O)N[C@@H](CC(N)=O)C(=O)N[C@H]2C(=O)N[C@H]3C(=O)N[C@H](C(=O)N[C@H](C(=O)O)c4cc(O)cc(O)c4-c4cc3ccc4O)[C@H](O)c3ccc(c(Cl)c3)Oc3cc2cc(c3O[C@@H]2O[C@H](CO)[C@@H](O)[C@H](O)[C@H]2O[C@H]2C[C@](C)(N)[C@H](O)[C@H](C)O2)Oc2ccc(cc2Cl)[C@H]1O` [Vancomycin, reference compound], which MIC (MRSA (BAA 1762); read-out: MIC MRSA) is on record?
A: 4 µg/mL (≈ 2.76 µM)

Q: And the “Survival rate (days post infection)” value (MRSA [6])?
A: 5.8 days

Q: What about the MIC (MSSA (ATCC 25923)) of the same molecule?
A: 2 µg/mL (≈ 1.38 µM)

Q: What about the “Reduction of bacterial load in thigh” value (MRSA [8]) of the same molecule?
A: 4.2 log CFU/gram tissue

Q: Which results are given for `COC(=O)C=CC(=O)c1ccc(Br)cc1` [Compound 3]?
A: MIC MRSA (MRSA (BAA 1762)): 16 µg/mL (≈ 59.5 µM); MIC MSSA (MSSA (ATCC 25923)): 8 µg/mL (≈ 29.7 µM)

Q: For `O=C(O)C=CC(=O)c1ccc(Cl)cc1` [Compound 6], which “MIC MRSA” value (MRSA (BAA 1762)) is on record?
A: > 60 µg/mL

Q: What about the “MIC MSSA” value (MSSA (ATCC 25923)) of the same molecule?
A: > 60 µg/mL

Q: What does the source list for `COC(=O)C=CC(=O)c1ccc([N+](=O)[O-])cc1` [Compound 4]?
A: MIC MRSA (MRSA (BAA 1762)): 4 µg/mL (≈ 17 µM); MIC MSSA (MSSA (ATCC 25923)): 4 µg/mL (≈ 17 µM)
